Tested on: 996289-038-R-J1-PDC spheroid viability
Assay: Anticancer human tumor 996289-038-R-J1-PDC patient-derived colon adenocarcinoma cell line growth inhibition [PI3K]
Details: spheroids with HUVEC and MSC; for IC50: curve of first compound; for viability, T/C: stronger effect = lower value
Source text: Combinatorial screen of targeted agents with the PI3K inhibitors inavolisib, alpelisib, duvelisib, and copanlisib in multi-cell type tumor spheroids
A high-throughput screen of multi-cell type tumor spheroids was designed to identify active combinations of targeted small molecules and PI3K pathway inhibitors. Complex spheroids include a stromal component modeled by human endothelial cells (HUVEC) and fibroblasts modeled by human mesenchymal stem cells (MSCs). The concentration ranges selected for each drug and investigational agent were based upon clinically achievable concentrations if the clinical Cmax of the agent was known.
Compounds. The drugs and investigational agents: inavolisib (NSC800729), alpelisib (NSC765974), duvelisib (NSC772469), copanlisib (NSC816437), ipatasertib (NSC767898), afuresertib (NSC778305), talazoparib (NSC767125), sapanisertib (NSC764658), selumetinib (NSC741078), tovorafenib (DAY101, NSC766906), vemurafenib (NSC761431), ravoxertinib (NSC781343), sotorasib (NSC818433), MRTX1133 (NSC 836407), abemaciclib (NSC 768073), palbociclib (NSC758247), venetoclax (NSC 766270), SY5609 (NSC837396), enzalutamide (NSC755605), and darolutamide (NSC825331), were obtained from the National Cancer Institute (NCI) Developmental Therapeutics Program Chemical Repository. The FDA-approved anticancer drug set is available from the NCI Developmental Therapeutics Program. […] The stock solutions were prepared in dimethyl sulfoxide (DMSO, Sigma-Aldrich, St. Louis, MO, cat. D2650) at 800-fold the tested concentration and stored at -70 degrees C prior to their use. All drugs and investigational agents were tested over a range starting from a high concentration at or near the clinical Cmax and decreasing in half-log increments. If the clinical Cmax for an agent had not been determined, the highest concentration tested was 10 microM.
Cell Culture. All cells were maintained in an incubator at 37 degrees C and 5% CO2 with 95% humidity. The PDC lines were cultured according to standard operating procedures established by the NCI PDMR (https://pdmr.cancer.gov/sops/default.htm). All PDCs were thawed and cultured in Matrigel-coated flasks prepared with a working solution of 1X Ham's F-12 nutrient mix, without supplementation (Invitrogen, Waltham, MA, cat. 11765054), 100 U/mL penicillin-streptomycin (Invitrogen, cat. 15140122), and 2.5% Matrigel (Corning Inc., Corning, NY, cat. 354248) for the first three passages. The 354836-022-R-J1-PDC, 475296-252-R-J1-PDC, and 997726-040-R-J2-PDC lines were cultured in 6A media, which includes advanced DMEM/F-12 (Thermo Fisher Scientific, cat. 12634028), 10 mM HEPES (Thermo Fisher Scientific, cat. 15630080), 1X GlutaMAX supplement (Thermo Fisher Scientific, cat. 35050061), 0.1 mg/mL primocin (InvivoGen, San Diego, CA, cat. ant-pm-2), 10% defined fetal bovine serum, heat inactivated (HyClone Laboratories Inc., Logan, UT, cat. SH30070.03HI), 50% L-WRN conditioned media (ATCC, cat. CRL-3276), 1.25 mM N-Acetyl-L-cysteine (Sigma-Aldrich, cat. A9165), 10 mM nicotinamide (Sigma-Aldrich, cat. N0636), 1X B-27 supplement (Thermo Fisher Scientific, cat. 17504044), 1X N-2 supplement (Thermo Fisher Scientific, cat. 17502048), and 10 microM Y-27632 dihydrochloride (Tocris Bioscience, Bristol, United Kingdom, cat. 1254). The 624824-186-R-J2-PDC line was cultured in 6C/Colon 1B media, which includes all 6A media components plus 50 ng/mL human EGF recombinant protein (Thermo Fisher Scientific, cat. PHG0311). […]
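Note: spheroids exposed to compounds for seven days before viability read.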
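Throughout, for viability, T/C: luminescence used as a proxy for viable cell amount; percent viability relative to DMSO vehicle control as 100%.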

IC50 (second compound 0.0316 µM): > 100 nM | IC50 (second compound 0.1 µM): > 100 nM | IC50 (second compound 0.316 µM): > 100 nM | IC50 (second compound 1 µM): > 100 nM | IC50 (second compound 3.16 µM): > 100 nM | IC50 (second compound 10 µM): < 0.316 nM
SMILES: Cn1ncnc1[C@H]1c2n[nH]c(=O)c3cc(F)cc(c23)N[C@@H]1c1ccc(F)cc1 + Cc1nc(NC(=O)N2CCCC2C(N)=O)sc1-c1ccnc(C(C)(C)C(F)(F)F)c1
viability, T/C (second compound 0.0316 µM, first compound 0.000316 µM): 120% | viability, T/C (second compound 0.0316 µM, first compound 0.001 µM): 117% | viability, T/C (second compound 0.0316 µM, first compound 0.00316 µM): 97.9% | viability, T/C (second compound 0.0316 µM, first compound 0.01 µM): 90.3% | viability, T/C (second compound 0.0316 µM, first compound 0.0316 µM): 99.9% | viability, T/C (second compound 0.0316 µM, first compound 0.1 µM): 99% | viability, T/C (second compound 0.1 µM, first compound 0.000316 µM): 113% | viability, T/C (second compound 0.1 µM, first compound 0.001 µM): 101% | viability, T/C (second compound 0.1 µM, first compound 0.00316 µM): 79.5% | viability, T/C (second compound 0.1 µM, first compound 0.01 µM): 84.9% | viability, T/C (second compound 0.1 µM, first compound 0.0316 µM): 91.2% | viability, T/C (second compound 0.1 µM, first compound 0.1 µM): 83.2% | viability, T/C (second compound 0.316 µM, first compound 0.000316 µM): 88.3% | viability, T/C (second compound 0.316 µM, first compound 0.001 µM): 85% | viability, T/C (second compound 0.316 µM, first compound 0.00316 µM): 84.1% | viability, T/C (second compound 0.316 µM, first compound 0.01 µM): 89.8% | viability, T/C (second compound 0.316 µM, first compound 0.0316 µM): 90.8% | viability, T/C (second compound 0.316 µM, first compound 0.1 µM): 77.3% | viability, T/C (second compound 1 µM, first compound 0.000316 µM): 76.6% | viability, T/C (second compound 1 µM, first compound 0.001 µM): 70.9% | viability, T/C (second compound 1 µM, first compound 0.00316 µM): 78.5% | viability, T/C (second compound 1 µM, first compound 0.01 µM): 77.9% | viability, T/C (second compound 1 µM, first compound 0.0316 µM): 76.7% | viability, T/C (second compound 1 µM, first compound 0.1 µM): 68.3% | viability, T/C (second compound 3.16 µM, first compound 0.000316 µM): 53.7% | viability, T/C (second compound 3.16 µM, first compound 0.001 µM): 69.4% | viability, T/C (second compound 3.16 µM, first compound 0.00316 µM): 64% | viability, T/C (second compound 3.16 µM, first compound 0.01 µM): 61.1% | viability, T/C (second compound 3.16 µM, first compound 0.0316 µM): 62% | viability, T/C (second compound 3.16 µM, first compound 0.1 µM): 58.4% | viability, T/C (second compound 10 µM, first compound 0.000316 µM): 42.5% | viability, T/C (second compound 10 µM, first compound 0.001 µM): 51.5% | viability, T/C (second compound 10 µM, first compound 0.00316 µM): 49.5% | viability, T/C (second compound 10 µM, first compound 0.01 µM): 44.2% | viability, T/C (second compound 10 µM, first compound 0.0316 µM): 55.1% | viability, T/C (second compound 10 µM, first compound 0.1 µM): 40.8%
